Like-named read-outs stand apart in the source and are kept apart here.
Legend:
Type in all cases: cell-based
[1] = target: protein kinases (human kinome) (Homo sapiens, UniProt Q15759); conditions: for logFC MAPK11 (Q15759): direction of change down; for logFC: MAPK11 (Q15759)
[2] = target: protein kinases (human kinome) (Homo sapiens, UniProt Q8NFU5); conditions: IPMK (Q8NFU5)
[3] = target: protein kinases (human kinome) (Homo sapiens, UniProt P31749); conditions: for logFC: AKT1 (P31749)
[4] = target: protein kinases (human kinome) (Homo sapiens, UniProt Q6JQN1); conditions: ACAD10 (Q6JQN1); experiment wp056
[5] = target: protein kinases (human kinome) (Homo sapiens, UniProt Q8N5S9); conditions: experiment wp117
[6] = target: protein kinases (human kinome) (Homo sapiens, UniProt O00764); conditions: protein PDXK (O00764-1); experiment wp117; down
[7] = target: T1, protein kinases (human kinome) (Homo sapiens, UniProt Q96S38); conditions: for logFC RPS6KC1 (Q96S38): direction of change down; for logFC: RPS6KC1 (Q96S38)
T1 sequence (Q96S38 1-1066): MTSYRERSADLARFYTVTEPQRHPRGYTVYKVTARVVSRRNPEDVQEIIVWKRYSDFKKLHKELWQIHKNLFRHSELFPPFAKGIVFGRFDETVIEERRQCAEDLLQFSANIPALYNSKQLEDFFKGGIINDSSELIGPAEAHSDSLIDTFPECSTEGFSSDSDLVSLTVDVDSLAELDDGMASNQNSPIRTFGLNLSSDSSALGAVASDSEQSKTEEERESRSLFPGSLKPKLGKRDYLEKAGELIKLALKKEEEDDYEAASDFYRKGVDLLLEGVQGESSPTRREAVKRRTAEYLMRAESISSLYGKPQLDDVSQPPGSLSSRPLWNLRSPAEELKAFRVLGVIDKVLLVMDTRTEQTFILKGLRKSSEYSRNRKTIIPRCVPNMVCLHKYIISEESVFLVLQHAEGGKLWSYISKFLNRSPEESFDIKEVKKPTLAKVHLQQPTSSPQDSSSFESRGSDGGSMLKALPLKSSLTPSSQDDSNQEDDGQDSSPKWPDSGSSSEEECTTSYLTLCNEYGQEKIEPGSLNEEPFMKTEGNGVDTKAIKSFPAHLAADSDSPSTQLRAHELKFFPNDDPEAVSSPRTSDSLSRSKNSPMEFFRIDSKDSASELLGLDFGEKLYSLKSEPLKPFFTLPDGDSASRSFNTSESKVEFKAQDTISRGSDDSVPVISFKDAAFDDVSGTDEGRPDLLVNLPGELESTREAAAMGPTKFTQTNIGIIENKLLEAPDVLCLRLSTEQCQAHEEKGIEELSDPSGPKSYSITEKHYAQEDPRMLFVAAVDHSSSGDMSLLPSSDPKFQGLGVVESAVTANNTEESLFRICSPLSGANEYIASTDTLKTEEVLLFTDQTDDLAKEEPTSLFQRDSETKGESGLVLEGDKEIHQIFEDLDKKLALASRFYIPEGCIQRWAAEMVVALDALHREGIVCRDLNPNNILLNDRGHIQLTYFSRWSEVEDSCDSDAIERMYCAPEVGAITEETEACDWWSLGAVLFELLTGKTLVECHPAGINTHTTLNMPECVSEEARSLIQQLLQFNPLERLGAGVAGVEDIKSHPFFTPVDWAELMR

[8] = target: protein kinases (human kinome) (Homo sapiens, UniProt Q96RU7)
[9] = target: protein kinases (human kinome) (Homo sapiens, UniProt Q96DU7); conditions: protein ITPKC (Q96DU7); experiment wp133, 4 hr; down
[10] = target: protein kinases (human kinome) (Homo sapiens, UniProt Q96QT4); conditions: experiment wp107
[11] = target: protein kinases (human kinome) (Homo sapiens, UniProt Q52WX2); conditions: for logFC: SBK1 (Q52WX2)
[12] = target: protein kinases (human kinome) (Homo sapiens, UniProt Q86UX6)
[13] = target: protein kinases (human kinome) (Homo sapiens, UniProt O75460); conditions: experiment wp076
[14] = target: protein kinases (human kinome) (Homo sapiens, UniProt Q8TF76); conditions: experiment wp137
[15] = Experiment wp114, direction of change down

Chain of protein kinases (human kinome) (Homo sapiens, UniProt P31749) (P31749 whole entry): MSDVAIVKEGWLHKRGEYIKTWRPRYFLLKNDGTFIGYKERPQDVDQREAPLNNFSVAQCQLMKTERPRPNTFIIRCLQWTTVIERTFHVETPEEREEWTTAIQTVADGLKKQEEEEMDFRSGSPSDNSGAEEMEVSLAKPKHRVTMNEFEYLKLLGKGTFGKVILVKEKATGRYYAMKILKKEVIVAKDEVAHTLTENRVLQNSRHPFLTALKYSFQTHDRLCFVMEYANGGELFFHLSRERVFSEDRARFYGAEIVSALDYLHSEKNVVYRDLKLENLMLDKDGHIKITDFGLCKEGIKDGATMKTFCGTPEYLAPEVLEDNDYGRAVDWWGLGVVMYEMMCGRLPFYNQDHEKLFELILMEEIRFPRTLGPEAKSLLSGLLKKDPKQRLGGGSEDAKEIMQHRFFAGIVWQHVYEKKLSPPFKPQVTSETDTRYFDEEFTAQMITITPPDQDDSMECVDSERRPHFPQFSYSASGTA
Chain of protein kinases (human kinome) (Homo sapiens, UniProt Q15759) (Q15759 whole entry): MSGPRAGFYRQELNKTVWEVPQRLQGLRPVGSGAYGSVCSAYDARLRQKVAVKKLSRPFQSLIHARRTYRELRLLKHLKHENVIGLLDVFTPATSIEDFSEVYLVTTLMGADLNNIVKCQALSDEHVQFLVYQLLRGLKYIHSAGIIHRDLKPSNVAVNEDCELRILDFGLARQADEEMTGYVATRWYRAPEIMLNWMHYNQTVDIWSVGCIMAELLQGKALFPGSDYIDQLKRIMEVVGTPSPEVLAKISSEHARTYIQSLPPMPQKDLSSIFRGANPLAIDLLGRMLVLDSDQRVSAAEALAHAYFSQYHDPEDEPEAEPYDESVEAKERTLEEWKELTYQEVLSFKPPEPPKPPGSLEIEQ
Chain of protein kinases (human kinome) (Homo sapiens, UniProt Q52WX2) (Q52WX2 whole entry): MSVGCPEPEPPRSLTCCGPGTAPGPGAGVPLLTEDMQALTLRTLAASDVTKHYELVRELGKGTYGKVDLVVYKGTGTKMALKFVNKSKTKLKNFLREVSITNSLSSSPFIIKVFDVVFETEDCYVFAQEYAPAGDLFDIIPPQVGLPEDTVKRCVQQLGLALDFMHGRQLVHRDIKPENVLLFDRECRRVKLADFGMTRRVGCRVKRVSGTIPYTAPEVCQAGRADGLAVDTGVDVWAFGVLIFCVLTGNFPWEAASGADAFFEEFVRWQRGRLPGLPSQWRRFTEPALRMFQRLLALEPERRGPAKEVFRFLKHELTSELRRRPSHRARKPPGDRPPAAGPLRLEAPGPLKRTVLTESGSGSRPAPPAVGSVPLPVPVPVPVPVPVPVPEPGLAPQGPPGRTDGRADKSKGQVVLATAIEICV
Chain of protein kinases (human kinome) (Homo sapiens, UniProt Q8NFU5) (Q8NFU5 whole entry): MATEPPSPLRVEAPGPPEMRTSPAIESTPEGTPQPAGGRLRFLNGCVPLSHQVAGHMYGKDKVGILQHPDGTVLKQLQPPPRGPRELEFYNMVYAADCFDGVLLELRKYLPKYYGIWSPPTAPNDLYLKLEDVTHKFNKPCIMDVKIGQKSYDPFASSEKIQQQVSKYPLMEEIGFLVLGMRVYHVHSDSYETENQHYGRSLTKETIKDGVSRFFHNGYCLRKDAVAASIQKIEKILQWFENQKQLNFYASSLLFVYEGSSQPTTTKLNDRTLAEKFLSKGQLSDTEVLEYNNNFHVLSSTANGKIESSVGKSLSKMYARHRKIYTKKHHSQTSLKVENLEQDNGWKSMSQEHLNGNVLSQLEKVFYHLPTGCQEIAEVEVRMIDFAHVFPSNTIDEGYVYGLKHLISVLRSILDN
Chain of protein kinases (human kinome) (Homo sapiens, UniProt Q96RU7) (Q96RU7 whole entry): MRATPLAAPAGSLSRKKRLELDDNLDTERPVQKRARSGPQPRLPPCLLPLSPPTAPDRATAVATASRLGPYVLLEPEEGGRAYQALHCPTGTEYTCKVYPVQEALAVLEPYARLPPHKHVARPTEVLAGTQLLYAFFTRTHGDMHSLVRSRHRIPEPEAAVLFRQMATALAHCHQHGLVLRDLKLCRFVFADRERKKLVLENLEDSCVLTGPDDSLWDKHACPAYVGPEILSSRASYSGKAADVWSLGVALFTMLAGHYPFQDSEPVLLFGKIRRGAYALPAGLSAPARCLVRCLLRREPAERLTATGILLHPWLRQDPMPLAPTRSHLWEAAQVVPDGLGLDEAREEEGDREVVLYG
Chain of protein kinases (human kinome) (Homo sapiens, UniProt O75460) (O75460 19-977): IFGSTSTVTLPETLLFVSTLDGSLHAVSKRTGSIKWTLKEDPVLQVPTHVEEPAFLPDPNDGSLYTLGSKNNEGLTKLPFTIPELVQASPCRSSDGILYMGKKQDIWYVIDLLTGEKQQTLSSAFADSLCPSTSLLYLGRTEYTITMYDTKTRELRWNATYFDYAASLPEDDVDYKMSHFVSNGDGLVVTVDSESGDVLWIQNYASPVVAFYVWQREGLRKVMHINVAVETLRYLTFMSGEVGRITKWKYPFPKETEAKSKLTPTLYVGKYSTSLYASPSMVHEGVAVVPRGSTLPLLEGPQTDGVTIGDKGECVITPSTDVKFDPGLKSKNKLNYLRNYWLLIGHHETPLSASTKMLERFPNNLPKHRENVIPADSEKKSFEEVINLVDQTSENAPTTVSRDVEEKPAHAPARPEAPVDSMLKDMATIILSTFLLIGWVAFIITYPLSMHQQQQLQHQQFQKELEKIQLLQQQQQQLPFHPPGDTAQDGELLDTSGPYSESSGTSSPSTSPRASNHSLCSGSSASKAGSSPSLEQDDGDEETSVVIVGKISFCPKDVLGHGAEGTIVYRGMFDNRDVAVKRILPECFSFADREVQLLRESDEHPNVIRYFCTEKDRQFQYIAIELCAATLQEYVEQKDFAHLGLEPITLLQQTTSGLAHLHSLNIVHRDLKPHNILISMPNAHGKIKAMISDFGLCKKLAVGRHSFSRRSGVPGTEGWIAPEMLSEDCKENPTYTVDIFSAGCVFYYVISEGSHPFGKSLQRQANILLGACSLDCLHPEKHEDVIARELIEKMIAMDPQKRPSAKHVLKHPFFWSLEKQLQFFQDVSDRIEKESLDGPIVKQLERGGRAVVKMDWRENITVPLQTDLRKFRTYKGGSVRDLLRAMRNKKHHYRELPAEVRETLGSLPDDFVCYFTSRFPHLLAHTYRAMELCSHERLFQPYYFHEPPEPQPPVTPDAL
Chain of protein kinases (human kinome) (Homo sapiens, UniProt Q96QT4) (Q96QT4 whole entry): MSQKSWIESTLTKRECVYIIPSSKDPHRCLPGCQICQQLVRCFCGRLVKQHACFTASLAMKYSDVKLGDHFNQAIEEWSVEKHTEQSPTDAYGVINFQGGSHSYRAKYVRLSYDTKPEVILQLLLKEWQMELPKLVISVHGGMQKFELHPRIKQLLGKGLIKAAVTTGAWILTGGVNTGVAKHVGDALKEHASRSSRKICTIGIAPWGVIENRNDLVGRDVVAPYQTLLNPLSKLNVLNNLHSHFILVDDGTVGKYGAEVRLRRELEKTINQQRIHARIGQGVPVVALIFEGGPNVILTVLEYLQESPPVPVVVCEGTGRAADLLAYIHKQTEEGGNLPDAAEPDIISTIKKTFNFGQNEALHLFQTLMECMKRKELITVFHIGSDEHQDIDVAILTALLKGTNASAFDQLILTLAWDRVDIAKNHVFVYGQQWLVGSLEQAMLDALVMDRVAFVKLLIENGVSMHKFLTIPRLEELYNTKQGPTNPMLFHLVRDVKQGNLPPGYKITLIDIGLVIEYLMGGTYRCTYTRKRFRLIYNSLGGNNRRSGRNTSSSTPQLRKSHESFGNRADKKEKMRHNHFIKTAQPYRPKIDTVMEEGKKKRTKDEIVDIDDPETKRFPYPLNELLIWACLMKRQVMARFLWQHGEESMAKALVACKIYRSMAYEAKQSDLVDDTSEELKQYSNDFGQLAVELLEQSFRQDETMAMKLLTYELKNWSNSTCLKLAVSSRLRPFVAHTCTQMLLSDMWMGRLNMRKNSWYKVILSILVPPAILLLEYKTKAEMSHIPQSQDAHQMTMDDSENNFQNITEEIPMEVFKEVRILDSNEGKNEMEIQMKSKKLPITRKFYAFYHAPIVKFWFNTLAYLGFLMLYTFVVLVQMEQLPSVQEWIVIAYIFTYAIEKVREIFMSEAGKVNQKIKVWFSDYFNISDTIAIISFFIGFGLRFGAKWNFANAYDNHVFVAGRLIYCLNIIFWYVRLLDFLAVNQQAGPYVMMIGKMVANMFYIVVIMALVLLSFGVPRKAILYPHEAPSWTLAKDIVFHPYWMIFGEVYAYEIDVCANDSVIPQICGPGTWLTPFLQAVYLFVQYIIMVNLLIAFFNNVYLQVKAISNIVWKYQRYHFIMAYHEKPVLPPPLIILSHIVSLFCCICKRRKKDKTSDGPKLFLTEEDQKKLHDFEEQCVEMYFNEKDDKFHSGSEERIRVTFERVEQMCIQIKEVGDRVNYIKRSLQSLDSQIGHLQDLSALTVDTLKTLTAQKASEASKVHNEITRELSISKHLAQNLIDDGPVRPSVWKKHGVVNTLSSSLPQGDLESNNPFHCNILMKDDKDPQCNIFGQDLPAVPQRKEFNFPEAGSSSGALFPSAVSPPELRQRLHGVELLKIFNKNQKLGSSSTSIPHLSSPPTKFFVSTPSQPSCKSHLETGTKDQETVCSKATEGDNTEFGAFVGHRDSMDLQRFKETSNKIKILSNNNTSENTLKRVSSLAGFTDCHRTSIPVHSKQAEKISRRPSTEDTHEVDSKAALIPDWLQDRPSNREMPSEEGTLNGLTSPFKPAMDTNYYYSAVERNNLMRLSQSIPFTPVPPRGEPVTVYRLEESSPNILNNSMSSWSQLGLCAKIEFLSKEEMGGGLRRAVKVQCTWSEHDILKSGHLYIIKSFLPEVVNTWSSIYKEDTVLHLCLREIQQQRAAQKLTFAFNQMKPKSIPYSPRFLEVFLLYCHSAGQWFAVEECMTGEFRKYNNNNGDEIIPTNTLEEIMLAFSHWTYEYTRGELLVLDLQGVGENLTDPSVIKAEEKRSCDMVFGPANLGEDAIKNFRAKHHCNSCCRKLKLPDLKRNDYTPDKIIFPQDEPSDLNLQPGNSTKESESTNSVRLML

Cc1ccc(NC(=O)c2cccc(C(F)(F)F)c2)cc1N1Cc2cnc(Nc3ccc(N4CCN(Cc5cn(CCCCCOc6cccc7c6C(=O)N(C6CCC(=O)NC6=O)C7=O)nn5)CC4)nc3)nc2N(C)C1=O (centres unmarked) [DB0646, N-(3-(7-((6-(4-((1-(5-((2-(2,6-Dioxopiperidin-3-yl)-1,3-dioxoisoindolin-4-yl)oxy)pentyl)-1H-1,2,3-triazol-4-yl)methyl)piperazin-1-v)pyridin-3-yl)amino)-1-methyl-2-oxo-1,4-dihydropyrimido[4,5-d]pyrimidin-3(2H)-yl)-4-methylphenyl)-3-(trifluoromethyl)benzamide]
logFC MAPK11 (Q15759) ([1]; Experiment wp105): −0.3998 | logFC MAPK11 (Q15759) ([1]; Experiment wp114): −0.6209 | logFC ([1]; experiment wp105): −0.3998 | logFC ([1]; experiment wp114): −0.6209

Nc1ncc(-c2ccc(S(=O)(=O)N(CCCNC(=O)CCOCCOCCOCCOCCOCCNc3cccc4c3C(=O)N(C3CCC(=O)NC3=O)C4=O)C3CC3)cc2)cc1-c1ccc2c(c1)CCNC2=O (centres unmarked) [WH.10417.099]
logFC ([2]; experiment wp056): −0.5845 | logFC ([2]; experiment wp107): −0.4154

C[C@@H]1C[C@@H](O)c2ncnc(N3CCN(C(=O)[C@H](CNCCCCCCCCCCc4cccc5c4C(=O)N(C4CCC(=O)NC4=O)C5=O)c4ccc(Cl)cc4)CC3)c21 (some centres unmarked) [INY.03.041.01]
logFC ([3]; experiment wp118): −2.258 | logFC ([3]; experiment wp135, 4 hr): −1.225 | logFC of AKT1 (P31749) ([3]; Experiment wp135, 4 hr): −1.225 | logFC of AKT1 (P31749) ([3]; experiment wp118): −2.258

Cc1ccc(C(=O)Nc2ccc(CN3CCN(CCCOCCOCCOCCNC(=O)COc4cccc5c4C(=O)N(C4CCC(=O)NC4=O)C5=O)CC3)c(C(F)(F)F)c2)cc1C#Cc1cnc2cccnn12 (centres unmarked) [SB1.G.187]
logFC [4]: −0.3838

CS(=O)(=O)Nc1cccc(-c2csc3cnc(Nc4ccc(N5CCN(CCCCCOc6cccc7c6C(=O)N(C6CCC(=O)NC6=O)C7=O)CC5)cc4)nc23)c1 (centres unmarked) [DB0614, N-(3-(2-((4-(4-(5-((2-(2,6-Dioxopiperidin-3-yl)-1,3-dioxoisoindolin-4-yl)oxy)pentyl)piperazin-1-yl)phenyl)amino)thieno[3,2-d]pyrimidin-7-yl)phenyl)methanesulfonamide]
logFC ([5]; CAMKK1 (Q8N5S9)): −0.471 | logFC CAMKK1 (Q8N5S9) ([5]; direction of change down): −0.471 | logFC PDXK [6]: −0.3964

CC(C)S(=O)(=O)c1ccccc1Nc1nc(Nc2ccc(N3CCN(CCOCCNC(=O)CNc4cccc5c4C(=O)N(C4CCC(=O)NC4=O)C5=O)CC3)cc2)ncc1Cl (centres unmarked) [SK.3.91]
logFC RPS6KC1 (Q96S38) ([7]; Experiment wp105): −0.3327 | logFC ([7]; experiment wp105): −0.3327 | logFC ([7]; experiment wp107): −0.3623 | logFC RPS6KC1 (Q96S38) ([7]; experiment wp107): −0.3623 | logFC TRIB3 (Q96RU7) [8, 15]: −1.211 | logFC TRIB3 ([8]; protein TRIB3 (Q96RU7), experiment wp114, down): −1.211 | logFC ITPKC [9]: −0.3556 | logFC TRPM7 (Q96QT4) ([10]; direction of change down): −0.3241 | logFC TRPM7 ([10]; protein TRPM7 (Q96QT4), down): −0.3241 | logFC of SBK1 (Q52WVX2) ([11]; Experiment wp107): −0.921 | logFC ([11]; experiment wp107): −0.921 | logFC ([11]; experiment wp133, 2 hr): −0.6852 | logFC ([11]; experiment wp133, 4 hr): −0.9029 | logFC of SBK1 (Q52WX2) ([11]; experiment wp133, 2 hr): −0.6852 | logFC of SBK1 (Q52WX2) ([11]; experiment wp133, 4 hr): −0.9029 | logFC STK32C (Q86UX6) [12, 15]: −0.6189 | logFC STK32C ([12]; protein STK32C (Q86UX6), experiment wp114, down): −0.6189

O=C1CCC(N2C(=O)c3cccc(NCCCCCCCCN4CCC(NC(=O)c5[nH]ncc5NC(=O)c5c(Cl)cccc5Cl)CC4)c3C2=O)C(=O)N1 (centres unmarked) [MFH.5.126.1]
logFC of ERN1 (O75460) [13]: −0.4882 | logFC ERN1 ([13]; protein ERN1 (O75460), down): −0.4882

CC(C)S(=O)(=O)c1ccccc1Nc1nc(Nc2ccc(N3CCN(CCOCCOCCNC(=O)CNc4cccc5c4C(=O)N(C4CCC(=O)NC4=O)C5=O)CC3)cc2)ncc1Cl (centres unmarked) [TL12.186]
logFC HASPIN (Q8TF76-1) ([14]; direction of change down): −0.368 | logFC HASPIN ([14]; protein HASPIN (QSTF76-1), down): −0.368

Reference: US20240269139A1, “COMPOUNDS FOR TARGETED PROTEIN DEGRADATION OF KINASES” (DANA-FARBER CANCER INSTITUTE, INC., priority 2020, published 2024)
